# Laboratory results published in the supplement of paper PMC11061612.
# Legend:
# [1] = compound: Cc1cc2ncnn2cc1Nc1ncc2c(n1)n(C1CCOCC1)c(=O)n2C [AZD7648]; conditions: max 10 µM
# Method in brief: (§1)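 Plates with 1536 wells received cancer cell lines in 7.5 μl of DMEM/F12 or RPMI containing 10% FBS. After 24 hours at 37°C and 5% CO2, cells were dosed for 72 hours with final DMSO typically 0.2%, and viability was read by CellTiter-Glo 2.0 luminescence scaled between blank-well and DMSO-well means. The single-agent IC50 was taken from a logistic fit of the dose responses made with a non-linear mixed effects model, that logistic curve having two parameters.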
# [2] = compound: CN(CC[C@H](CSC1=CC=CC=C1)NC2=C(C=C(C=C2)S(=O)(=O)NC(=O)C3=CC=C(C=C3)N4CCC(CC4)[C@H](C5=CC=CC=C5C6=CC=C(C=C6)Cl)O)S(=O)(=O)C(F)(F)F)CCO [AZD4320]; conditions: max 1 µM
# Method in brief: as §1
# [3] = compound: COc1cccc(OCCCN)c1-c1cc(Nc2cnc(C#N)cn2)n[nH]1 [Prexasertib]; conditions: max 1 µM
# Method in brief: as §1
# [4] = compound: C[C@@H]1COCCN1C2=NC(=NC(=C2)C3(CC3)[S@](=N)(=O)C)C4=C5C=CNC5=NC=C4 [AZD6738]; conditions: max 10 µM
# Method in brief: as §1
# [5] = compound: NC1(c2ccc(-c3nc4ccn5c(=O)[nH]nc5c4cc3-c3ccccc3)cc2)CCC1 [MK-2206]; conditions: max 10 µM
# Method in brief: as §1
# [6] = compound: C[C@@H](Nc1cc(F)cc(F)c1)c1cc(C(=O)N(C)C)cc2c(=O)cc(N3CCOCC3)oc12 [AZD8186]; conditions: max 3 µM
# Method in brief: as §1
# [7] = compound: C=CCn1c(=O)c2cnc(Nc3ccc(N4CCN(C)CC4)cc3)nc2n1-c1cccc(C(C)(C)O)n1 [AZD1775]; conditions: max 3 µM
# Method in brief: as §1
# [8] = compound: COc1cccc2c1C(=O)c1c(O)c3c(c(O)c1C2=O)C[C@@](O)(C(=O)CO)C[C@@H]3O[C@H]1C[C@H](N)[C@H](O)[C@H](C)O1 [Doxorubicin]; conditions: max 1 µM
# Method in brief: as §1
# [9] = compound: CS(=O)(=O)CCNCc1ccc(-c2ccc3ncnc(Nc4ccc(OCc5cccc(F)c5)c(Cl)c4)c3c2)o1 [Lapatinib]; conditions: max 10 µM
# Method in brief: as §1
# [10] = compound: C[C@@H](Oc1cc(-c2cnn(C3CCNCC3)c2)cnc1N)c1c(Cl)ccc(F)c1Cl [Crizotinib]; conditions: max 10 µM
# Method in brief: as §1
# [11] = compound: Cc1c2c(nn1C)CSCc1cc(n(C)n1)CSc1cc(c3ccccc3c1)OCCCc1c(C(=O)O)n(C)c3c-2c(Cl)ccc13 [AZD5991]; conditions: max 1 µM
# Method in brief: as §1
# [12] = compound: Cn1cnc2c(F)c(Nc3ccc(Br)cc3Cl)c(C(=O)NOCCO)cc21 [Selumetinib]; conditions: max 10 µM
# Method in brief: as §1
# [13] = compound: C[C@@H](c1ccc2nccn2c1)n1nnc2ncc(-c3cnn(C)c3)nc21 [Savolitinib]; conditions: max 1 µM
# Method in brief: as §1
# [14] = compound: COc1nnc2ccc(N3CCC(c4ccc(OCCN5CCN(C)C(=O)[C@H]5C)cc4)CC3)nn12 [AZD5153]; conditions: max 1 µM
# Method in brief: as §1
# [15] = compound: CC1=CN2[C@@H](C1)C=NC3=CC(=C(C=C3C2=O)OC)OCCCCCOC4=C(C=C5C(=C4)N=C[C@@H]6CC(=CN6C5=O)C)OC [SG3199]; conditions: max 0.001 µM
# Method in brief: as §1
# [16] = compound: C1CN(CCC1(C(=O)N[C@@H](CCO)C2=CC=C(C=C2)Cl)N)C3=NC=NC4=C3C=CN4 [Capivasertib]; conditions: max 10 µM
# Method in brief: as §1
# [17] = compound: CC1(C)CCC(CN2CCN(c3ccc(C(=O)NS(=O)(=O)c4ccc(NCC5CCOCC5)c([N+](=O)[O-])c4)c(Oc4cnc5[nH]ccc5c4)c3)CC2)=C(c2ccc(Cl)cc2)C1 [Venetoclax]; conditions: max 1 µM
# Method in brief: as §1
# [18] = compound: Cc1nc(-c2cn3c(n2)-c2ccc(-c4cnn(C(C)(C)C(N)=O)c4)cc2OCC3)n(C(C)C)n1 [Taselisib]; conditions: max 10 µM
# Method in brief: as §1
# [19] = compound: CCc1c2c(nc3ccc(O)cc13)-c1cc3c(c(=O)n1C2)COC(=O)[C@]3(O)CC [SN-38]; conditions: max 0.3 µM
# Method in brief: as §1
# [20] = compound: COc1cc2ncnc(Nc3ccc(F)c(Cl)c3)c2cc1OCCCN1CCOCC1 [Gefitinib]; conditions: max 10 µM
# Method in brief: as §1
# [21] = compound: O=C(c1cc(Cc2n[nH]c(=O)c3ccccc23)ccc1F)N1CCN(C(=O)C2CC2)CC1 [Olaparib]; conditions: max 10 µM
# Method in brief: as §1
# [22] = compound: CC(C)n1c(=O)n(C)c2cnc3cc(F)c(-c4ccc(OCCCN5CCCCC5)nc4)cc3c21 [AZD1390]; conditions: max 0.3 µM
# Method in brief: as §1
# [23] = compound: CN(C)CCCOc1ccc(-c2ccc3ncc4c(c3c2)n(C2CCOCC2)c(=O)n4C)cn1 [AZD0156]; conditions: max 3 µM
# Method in brief: as §1
# [24] = compound: CC(=O)Nc1cccc(-n2c(=O)n(C3CC3)c(=O)c3c(Nc4ccc(I)cc4F)n(C)c(=O)c(C)c32)c1 [Trametinib]; conditions: max 1 µM
# Method in brief: as §1
# [25] = compound: CC1=C(C(=CC=C1)Cl)NC(=O)C2=CN=C(S2)NC3=CC(=NC(=N3)C)N4CCN(CC4)CCO [Dasatinib]; conditions: max 2 µM
# Method in brief: as §1
# [26] = compound: CCN(CCO)CCCOc1ccc2c(Nc3cc(CC(=O)Nc4cccc(F)c4)[nH]n3)ncnc2c1 [AZD2811]; conditions: max 1 µM
# Method in brief: as §1
# [27] = compound: COc1cc(Nc2ncc3c(n2)-c2ccc(Cl)cc2C(c2c(F)cccc2OC)=NC3)ccc1C(=O)O [Alisertib]; conditions: max 10 µM
# Method in brief: as §1
# [28] = compound: CC(=O)c1c(C)c2cnc(Nc3ccc(N4CCNCC4)cn3)nc2n(C2CCCC2)c1=O [Palbociclib]; conditions: max 10 µM
# Method in brief: as §1
Cell Line,"IC50, cell viability 72 h [1] [µM]","IC50, cell viability 72 h [2] [µM]","IC50, cell viability 72 h [3] [µM]","IC50, cell viability 72 h [4] [µM]","IC50, cell viability 72 h [5] [µM]","IC50, cell viability 72 h [6] [µM]","IC50, cell viability 72 h [7] [µM]","IC50, cell viability 72 h [8] [µM]","IC50, cell viability 72 h [9] [µM]","IC50, cell viability 72 h [10] [µM]","IC50, cell viability 72 h [11] [µM]","IC50, cell viability 72 h [12] [µM]","IC50, cell viability 72 h [13] [µM]","IC50, cell viability 72 h [14] [µM]","IC50, cell viability 72 h [15] [µM]","IC50, cell viability 72 h [16] [µM]","IC50, cell viability 72 h [17] [µM]","IC50, cell viability 72 h [18] [µM]","IC50, cell viability 72 h [19] [µM]","IC50, cell viability 72 h [20] [µM]","IC50, cell viability 72 h [21] [µM]","IC50, cell viability 72 h [22] [µM]","IC50, cell viability 72 h [23] [µM]","IC50, cell viability 72 h [24] [µM]","IC50, cell viability 72 h [25] [µM]","IC50, cell viability 72 h [26] [µM]","IC50, cell viability 72 h [27] [µM]","IC50, cell viability 72 h [28] [µM]"
RERF-GC-1B (Gastric Carcinoma),> 10,> 1,0.717,> 10,> 10,> 3,0.401,0.525,> 10,7.14,0.159,> 10,> 1,0.587,> 0.001,> 10,> 1,1.65,0.0609,> 10,> 10,> 0.3,> 3,0.462,0.0282,> 1,3.28,> 10
RERF-LC-Sq1 (Squamous Cell Lung Carcinoma),> 10,> 1,0.0366,4.11,–,> 3,0.681,1,2.64,> 10,> 1,> 10,> 1,0.768,> 0.001,1.6,> 1,0.427,0.167,3.12,> 10,> 0.3,> 3,0.179,> 2,> 1,> 10,6.6
SF268 (Low Grade Glioma),> 10,> 1,0.643,> 10,–,> 3,> 3,> 1,> 10,> 10,> 1,> 10,> 1,> 1,> 0.001,> 10,> 1,> 10,0.0235,> 10,> 10,> 0.3,> 3,> 1,> 2,> 1,7.28,> 10
SU-DHL-10 (B-Cell Non-Hodgkin's Lymphoma),> 10,> 1,0.0272,2.62,–,1.08,0.586,0.442,4.97,2.48,0.0255,> 10,> 1,0.0095,> 0.001,0.505,> 1,1.34,0.013,7.02,> 10,> 0.3,> 3,> 1,0.0628,0.0292,0.684,0.435
WM278 (Melanoma),> 10,> 1,0.413,> 10,–,> 3,> 3,> 1,> 10,> 10,> 1,3.57,> 1,> 1,> 0.001,> 10,> 1,> 10,0.2,> 10,> 10,> 0.3,> 3,0.0858,> 2,> 1,> 10,> 10
WM793B (Melanoma),> 10,> 1,0.0278,3.1,–,> 3,1.93,0.471,> 10,> 10,> 1,7.02,> 1,0.493,> 0.001,> 10,> 1,2.8,0.0228,> 10,> 10,> 0.3,> 3,0.175,> 2,> 1,> 10,> 10
